{"source": "patent US20230104936A1", "about": "“TRPML MODULATORS” (Casma Therapeutics, Inc., priority 2019, published 2023)", "data": [{"test_system": "TFEB", "test": "TFEB nuclear translocation assay, HeLa wt cells", "format": "cell-based", "conditions": "Homo sapiens, HeLa, 2 h, 2 hrs compound treatment, Table 1 does not say HeLa wt or TRPML1 KO", "how_it_was_run": "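TFEB translocation into the nucleus of HeLa wt cells is scored by high-content immunofluorescence after 2 hrs of compound treatment at 37° C, reported as AC50.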", "units": {"AC50": "µM"}, "values": [{"smiles": "CN1CC2(CCN(c3ccccc3NS(=O)(=O)c3ccc(S(=O)(=O)C(F)F)cc3)CC2)c2ccc(F)cc21", "note": "[Compound A-246, 4-difluoromethanesulfonyl-N-(2-{6-fluoro-1-methyl-1,2-dihydrospiro[indole-3,4′-piperidin]-1′-yl}phenyl)benzene-1-sulfonamide]", "AC50": "≤ 2"}, {"smiles": "CN1CC2(CCN(c3c(NS(=O)(=O)c4ccc(S(=O)(=O)N(C)C)cc4)ccc4c3cnn4C)CC2)c2ccc(F)cc21", "note": "[Compound A-247, N4-(4-{6-fluoro-1-methyl-1,2-dihydrospiro[indole-3,4′-piperidin]-1′-yl}-1-methyl-1H-indazol-5-yl)-N1,N1-dimethylbenzene-1,4-disulfonamide]", "AC50": "≤ 2"}, {"smiles": "CN1CC2(CCN(c3ccccc3NS(=O)(=O)c3ccc(S(C)(=O)=O)cc3)CC2)c2ccc(F)cc21", "note": "[Compound A-251, N-(2-{6-fluoro-1-methyl-1,2-dihydrospiro[indole-3,4′-piperidin]-1′-yl}phenyl)-4-methanesulfonylbenzene-1-sulfonamide]", "AC50": "≤ 2"}, {"smiles": "COc1ccc(S(=O)(=O)Nc2ccccc2N2CCC3(CC2)CN(C)c2cc(F)ccc23)cc1", "note": "[Compound A-252, N-(2-{6-fluoro-1-methyl-1,2-dihydrospiro[indole-3,4′-piperidin]-1′-yl}phenyl)-4-methoxybenzene-1-sulfonamide]", "AC50": "≤ 2"}, {"smiles": "CN(C)S(=O)(=O)c1ccc(S(=O)(=O)Nc2ccccc2N2CCC3(CC2)COc2cc(F)ccc23)cc1", "note": "[Compound A-253, N4-(2-{6-fluoro-2H-spiro[1-benzofuran-3,4′-piperidin]-1′-yl}phenyl)-N1,N1-dimethylbenzene-1,4-disulfonamide]", "AC50": "≤ 2"}, {"smiles": "CC(c1ccccc1N1CCC(c2c(F)cccc2F)CC1)S(=O)(=O)c1ccc(S(=O)(=O)N(C)C)cc1", "note": "(stereo not drawn) [Compound A-254, 4-((1-(2-(4-(2,6-difluorophenyl)piperidin-1-yl)phenyl)ethyl)sulfonyl)-N,N-dimethylbenzenesulfonamide]", "AC50": "≤ 2"}, {"smiles": "CN1CC2(CCN(c3ccccc3NS(=O)(=O)c3ccc(S(=N)(=O)N(C)C)cc3)CC2)c2ccc(F)cc21", "note": "(stereo not drawn) [Compound A-257, 4-[(2-{6-fluoro-1-methyl-1,2-dihydrospiro[indole-3,4′-piperidin]-1′-yl}phenyl)sulfamoyl]-N,N-dimethylbenzene-1-sulfonoimidamide]", "AC50": "≤ 2"}, {"smiles": "CN(C)S(=O)(=O)c1ccc(S(=O)(=O)Nc2ccccc2N2CCC3(CC2)OCc2cc(F)ccc23)cc1", "note": "[Compound A-258, N4-(2-{5-fluoro-3H-spiro[2-benzofuran-1,4′-piperidin]-1′-yl}phenyl)-N1,N1-dimethylbenzene-1,4-disulfonamide]", "AC50": "≤ 2"}, {"smiles": "CN(C)S(=O)(=O)c1ccc(S(=O)(=O)Nc2ccccc2N2CCC(c3ccccc3C(=O)O)CC2)cc1", "note": "[Compound A-259, 2-(1-{2-[4-(dimethylsulfamoyl)benzenesulfonamido]phenyl}piperidin-4-yl)benzoic acid]", "AC50": "≥ 10"}, {"smiles": "CN(C)S(=O)(=O)c1ccc(S(=O)(=O)Nc2ccccc2N2CCC(c3cccc(C(=O)O)c3)CC2)cc1", "note": "[Compound A-266, 3-(1-{2-[4-(dimethylsulfamoyl)benzenesulfonamido]phenyl}piperidin-4-yl)benzoic acid]", "AC50": "≥ 10"}, {"smiles": "CN(C)S(=O)(=O)c1ccc(S(=O)(=O)Nc2ccccc2N2CCC(c3ccc(C(=O)O)cc3)CC2)cc1", "note": "[Compound A-267, 4-(1-{2-[4-(dimethylsulfamoyl)benzenesulfonamido]phenyl}piperidin-4-yl)benzoic acid]", "AC50": "≥ 10"}, {"smiles": "CN1CC2(CCN(c3ccccc3NS(=O)(=O)c3ccc(S(=O)(=O)N(C)C)cc3)CC2)c2ncc(Cl)cc21", "note": "[Compound A-268, N4-(2-{6′-chloro-1′-methyl-1′,2′-dihydrospiro[piperidine-4,3′-pyrrolo[3,2-b]pyridin]-1-yl}phenyl)-N1,N1-dimethylbenzene-1,4-disulfonamide]", "AC50": "≤ 2"}, {"smiles": "CN1CC2(CCN(c3ccccc3NS(=O)(=O)c3ccc(S(=O)(=O)N(C)C)cc3)CC2)C2NCCCC21", "note": "(stereo not drawn) [Compound A-269, N1,N1-dimethyl-N4-(2-{1′-methyl-octahydrospiro[piperidine-4,3′-pyrrolo[3,2-b]pyridin]-1-yl}phenyl)benzene-1,4-disulfonamide]", "AC50": "≥ 10"}, {"smiles": "CN1CC2(CCN(c3ccccc3NS(=O)(=O)c3ccc(S(=O)(=O)N(C)C)cc3)CC2)c2ncccc21", "note": "[Compound A-271, N1,N1-dimethyl-N4-(2-{1′-methyl-1′,2′-dihydrospiro[piperidine-4,3′-pyrrolo(3,2-b]pyridin]-1-yl}phenyl)benzene-1,4-disulfonamide]", "AC50": "≤ 2"}, {"smiles": "CN(C)S(=O)(=O)c1ccc(S(=O)(=O)Nc2ccccc2N2CCC(c3cccc(-c4nn[nH]n4)c3)CC2)cc1", "note": "[Compound A-272, N1,N1-dimethyl-N4-(2-{4-[3-(2H-1,2,3,4-tetrazol-5-yl)phenyl]piperidin-1-yl}phenyl)benzene-1,4-disulfonamide]", "AC50": "≥ 10"}, {"smiles": "CN(C)S(=O)(=O)c1ccc(S(=O)(=O)Nc2ccccc2N2CCC(c3ccc(-c4nnn[nH]4)cc3)CC2)cc1", "note": "[Compound A-273, N1,N1-dimethyl-N4-(2-{4-[4-(1H-1,2,3,4-tetrazol-5-yl)phenyl]piperidin-1-yl}phenyl)benzene-1,4-disulfonamide]", "AC50": "≥ 10"}, {"smiles": "O=S(=O)(Nc1cccc(Cl)c1N1CCOCC1)c1ccc(S(=O)(=O)C(F)F)cc1", "note": "[Compound A-274, N-[3-chloro-2-(morpholin-4-yl)phenyl]-4-difluoromethanesulfonylbenzene-1-sulfonamide]", "AC50": "≥ 10"}, {"smiles": "CS(=O)(=O)c1ccc(S(=O)(=O)Nc2cccc(Cl)c2N2CCOCC2)cc1", "note": "[Compound A-275, N-[3-chloro-2-(morpholin-4-yl)phenyl]-4-methanesulfonylbenzene-1-sulfonamide]", "AC50": "≥ 10"}, {"smiles": "CC(C)(C)S(=O)(=O)c1ccc(S(=O)(=O)Nc2cc(Cl)ccc2N2CCOCC2)cc1", "note": "[Compound A-276, N-[5-chloro-2-(morpholin-4-yl)phenyl]-4-(2-methylpropane-2-sulfonyl)benzene-1-sulfonamide]", "AC50": "≥ 10"}, {"smiles": "O=S(=O)(Nc1cc(Cl)ccc1N1CCOCC1)c1ccc(S(=O)(=O)C(F)F)cc1", "note": "[Compound A-277, N-[5-chloro-2-(morpholin-4-yl)phenyl]-4-difluoromethanesulfonylbenzene-1-sulfonamide]", "AC50": "≥ 10"}, {"smiles": "CC(C)(C)S(=O)(=O)c1ccc(S(=O)(=O)Nc2cccc(Cl)c2N2CCOCC2)cc1", "note": "[Compound A-278, N-[3-chloro-2-(morpholin-4-yl)phenyl]-4-(2-methylpropane-2-sulfonyl)benzene-1-sulfonamide]", "AC50": "≥ 10"}, {"smiles": "CN(C)S(=O)(=O)c1ccc(S(=O)(=O)Nc2ccccc2N2CCC(c3ccccc3-c3nnn[nH]3)CC2)cc1", "note": "[Compound A-280, N1,N1-dimethyl-N4-(2-{4-[2-(1H-1,2,3,4-tetrazol-5-yl)phenyl]piperidin-1-yl}phenyl)benzene-1,4-disulfonamide]", "AC50": "≥ 10"}, {"smiles": "CN(C)C1CCCC12CCN(c1ccccc1NS(=O)(=O)c1ccc(S(=O)(=O)N(C)C)cc1)CC2", "note": "(stereo not drawn) [Compound A-281, N4-{2-[1-(dimethylamino)-8-azaspiro[4.5]decan-8-yl]phenyl}-N1,N1-dimethylbenzene-1,4-disulfonamide]", "AC50": "≥ 10"}, {"smiles": "CN1C(=O)C2(CCN(c3ccccc3NS(=O)(=O)c3ccc(S(=O)(=O)N(C)C)cc3)CC2)c2cccnc21", "note": "[Compound A-282, N1,N1-dimethyl-N4-(2-{1′-methyl-2′-oxo-1′,2′-dihydrospiro[piperidine-4,3′-pyrrolo[2,3-b]pyridin]-1-yl}phenyl)benzene-1,4-disulfonamide]", "AC50": "2.01 to 8"}, {"smiles": "CN(C)S(=O)(=O)c1ccc(S(=O)(=O)Nc2ccccc2N2CCN(c3ccc(Cl)cc3F)CC2=O)cc1", "note": "[Compound A-283, N4-{2-[4-(4-chloro-2-fluorophenyl)-2-oxopiperazin-1-yl]phenyl}-N1,N1-dimethylbenzene-1,4-disulfonamide]", "AC50": "≥ 10"}, {"smiles": "CP(C)(=O)c1ccc(S(=O)(=O)Nc2cc(Cl)ccc2N2CCOCC2)cc1", "note": "[Compound A-284, N-[5-chloro-2-(morpholin-4-yl)phenyl]-4-(dimethylphosphoryl)benzene-1-sulfonamide]", "AC50": "≥ 10"}, {"smiles": "CN(C)S(=O)(=O)c1ccc(S(=O)(=O)N(C)c2cc(Cl)ccc2N2CCOCC2)cc1", "note": "[Compound A-285, N1-[5-chloro-2-(morpholin-4-yl)phenyl]-N1,N4,N4-trimethylbenzene-1,4-disulfonamide]", "AC50": "≥ 10"}, {"smiles": "CN(C)S(=O)(=O)c1ccc(S(=O)(=O)N(C)c2cccc(Cl)c2N2CCOCC2)cc1", "note": "[Compound A-286, N1-[3-chloro-2-(morpholin-4-yl)phenyl]-N1,N4,N4-trimethylbenzene-1,4-disulfonamide]", "AC50": "≥ 10"}, {"smiles": "CP(C)(=O)c1ccc(S(=O)(=O)Nc2cccc(Cl)c2N2CCOCC2)cc1", "note": "[Compound A-287, N-[3-chloro-2-(morpholin-4-yl)phenyl]-4-(dimethylphosphoryl)benzene-1-sulfonamide]", "AC50": "≥ 10"}, {"smiles": "O=S(=O)(Nc1cccc(Cl)c1N1CCN(c2ccc(Cl)cc2F)CC1)c1ccc2c(c1)CCC2", "note": "[Compound A-288, N-{3-chloro-2-[4-(4-chloro-2-fluorophenyl)piperazin-1-yl]phenyl}-2,3-dihydro-1H-indene-5-sulfonamide]", "AC50": "≤ 2"}, {"smiles": "CCN1CCN(c2ccc(Cl)cc2NS(=O)(=O)c2ccc3c(c2)CCC3)CC1", "note": "[Compound A-289, N-[5-chloro-2-(4-ethylpiperazin-1-yl)phenyl]-2,3-dihydro-1H-indene-5-sulfonamide]", "AC50": "≥ 10"}, {"smiles": "CN(C)S(=O)(=O)c1ccc(S(=O)(=O)Nc2cc(Cl)ccc2N2CCOCC2)cc1", "note": "[Compound A-290, N4-[5-chloro-2-(morpholin-4-yl)phenyl]-N1,N1-dimethylbenzene-1,4-disulfonamide]", "AC50": "≥ 10"}, {"smiles": "O=S(=O)(Nc1cc(Cl)ccc1N1CCN(c2ccc(Cl)cc2F)CC1)c1ccc2c(c1)CCC2", "note": "[Compound A-291, N-{5-chloro-2-[4-(4-chloro-2-fluorophenyl)piperazin-1-yl]phenyl}-2,3-dihydro-1H-indene-5-sulfonamide]", "AC50": "≤ 2"}]}]}
